Laboratory results from patent US8367707B2, “Pest control agents” (Meiji Seika Pharma Co., Ltd., priority 2005, dated 2013).

Tests used:
[1] = system: Tenebrio molitor L; settings: WO 2004/060065; cited from earlier work
[2] = system: Plutella xylostella L larvae; settings: WO 2004/060065; cited from earlier work
[3] = system: larvae of Helicoverpa zea; settings: Applied and Environmental Microbiology (1995), 61(12), 4429-35; cited from earlier work
[4] = system: Helicoverpa armigera; assay: Test Example 4: pesticidal effect against Helicoverpa armigera, cabbage leaf disk; type: in vivo; settings: 100 ppm; third instar larva on cabbage leaf disk; three days after treatment, 25° C.
Source text: A cabbage leaf disk having a diameter of 2.8 cm was placed is in a plastic cup. Test compounds, which had been diluted to a predetermined concentration by the addition of a 50% aqueous acetone solution (Tween 20, 0.05% added), were spreaded over the cabbage leaf disk by means of a spray gun, and the cabbage leaf disk was then air dried. A larva at the third instar of Helicoverpa armigera was released in the cup. The cup was then lidded, and the larva was reared in the temperature-controlled room (25° C.). […] The test was repeated 5 times. Further, the death rate of the larvae were calculated in the same manner as in Test Example 1.

Row | Compound | insecticidal activity against Tenebrio molitor L [1] | insecticidal activity against Plutella xylostella L larvae [2] | insecticidal activity against larvae of Helicoverpa zea [3] | death rate of larvae [4]
1 | CC(=O)OCC1(C)C(OC(C)=O)CCC2(C)C1CC(OC(C)=O)C1(C)Oc3cc(-c4cccnc4)oc(=O)c3C(O)C21 (stereo not shown) [pyripyropene A] | insecticidal activity | insecticidal activity | insecticidal activity | –
2 | CC1(COC(=O)C2CCC2)C(OC(=O)C2CCC2)CCC2(C)C1CC(OC(=O)C1CCC1)C1(C)Oc3cc(-c4cccnc4)oc(=O)c3C(O)C21 (stereo not shown) [Compound 219] | – | – | – | not less than 80%
